{"source": "patent US8697628B2", "about": "“Methods of using AMPD2 inhibitors for the treatment of fatty liver, obesity and diabetes” (The Regents of the University of Colorado, a body corporate, priority 2010, dated 2014)", "key": {"[1]": {"target": "AMP deaminase", "conditions": "Ki as low as; cited from earlier work"}, "[2]": {"target": "T1, adenosine deaminase (Homo sapiens, UniProt P00813)", "T1 sequence (P00813 1-363)": "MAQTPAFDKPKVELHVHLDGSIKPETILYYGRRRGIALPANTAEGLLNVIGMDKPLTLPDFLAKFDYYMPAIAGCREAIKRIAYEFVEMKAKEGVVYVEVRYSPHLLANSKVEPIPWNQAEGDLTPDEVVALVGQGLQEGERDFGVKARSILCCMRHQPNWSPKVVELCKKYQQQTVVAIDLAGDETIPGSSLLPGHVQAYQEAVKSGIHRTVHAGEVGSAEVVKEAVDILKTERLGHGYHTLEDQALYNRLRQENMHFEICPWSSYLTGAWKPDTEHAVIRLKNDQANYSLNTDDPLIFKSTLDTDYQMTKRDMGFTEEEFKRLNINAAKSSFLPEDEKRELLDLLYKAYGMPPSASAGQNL", "conditions": "cited from earlier work"}, "[3]": {"tested_on": "purified human cardiac AMP deaminase", "conditions": "purified enzyme; cited from earlier work"}, "[4]": {"tested_on": "AMP deaminase in isolated cardiomyoctes", "conditions": "isolated cardiomyocytes; cited from earlier work"}, "[5]": {"tested_on": "AMPD isolated from squirrel liver (AMPD2)", "assay": "AMP deaminase activity by ammonia production", "assay_type": "biochemical", "experimental": "AMP deaminase activity was determined by estimating the production of ammonia by a modification of the method described by Chaney and Marbach. See, Chaney et al., Clin Chem., 1962, 8, 130-132; Ito et al., J Biochem., 1988, 103, 259-262; and Sims et al., Neurobiol Aging., 1998, 19, 385-391. Briefly, the reaction mixture consisted of 25 mM sodium citrate, pH 6.0, 50 mM potassium chloride, and different concentration of AMP. The enzyme reaction was initiated by the addition of the enzyme solution and incubated at 37° C. for 15 min. The reaction was stopped with the addition of the phenol/hypochlorite reagents: Reagent A (100 mM phenol and 0.050 g/L sodium nitroprusside in H2O) was added, followed by reagent B (125 mM sodium hydroxide, 200 mM dibasic sodium phosphate, and 0.1% sodium hypochlorite in H2O) and incubated for 30 min at 25° C. The absorbance of the samples was measured at 625 nm with a spectrophotometer. To determine the absolute specific activity of ammonia production (micromoles ammonia/min), a calibration curve was determined in the range of 5 μM to 1 mM of ammonia.\nUsing the procedure above, various AMPD2 inhibitors were assayed. […] For this assay AMPD isolated from squirrel liver was used, which only expresses AMPD2 and not the other AMPD isoforms."}, "[6]": {"tested_on": "HepG2 cells", "assay": "Fructose-stimulated HepG2 cells treated with metformin or AICAR", "assay_type": "cell-based, human", "conditions": "for rise in intracellular triglycerides in response to fructose: HepG2, fructose 5 mM; for fall in enoyl CoA hydratase-1 (ECH-1) levels (defect in fat oxidation): HepG2, fructose 5 mM for 72 hrs, densitometry of western blot"}, "[7]": {"tested_on": "AMP deaminase", "conditions": "cited from earlier work"}, "[8]": {"tested_on": "HepG2 cells", "conditions": "with IMP"}, "[9]": {"target": "T1, adenosine deaminase", "conditions": "cited from earlier work", "remark": "listed apart in the source"}, "[10]": {"target": "T2, AMPD2 (Homo sapiens, UniProt Q01433)", "T2 sequence (Q01433 1-825)": "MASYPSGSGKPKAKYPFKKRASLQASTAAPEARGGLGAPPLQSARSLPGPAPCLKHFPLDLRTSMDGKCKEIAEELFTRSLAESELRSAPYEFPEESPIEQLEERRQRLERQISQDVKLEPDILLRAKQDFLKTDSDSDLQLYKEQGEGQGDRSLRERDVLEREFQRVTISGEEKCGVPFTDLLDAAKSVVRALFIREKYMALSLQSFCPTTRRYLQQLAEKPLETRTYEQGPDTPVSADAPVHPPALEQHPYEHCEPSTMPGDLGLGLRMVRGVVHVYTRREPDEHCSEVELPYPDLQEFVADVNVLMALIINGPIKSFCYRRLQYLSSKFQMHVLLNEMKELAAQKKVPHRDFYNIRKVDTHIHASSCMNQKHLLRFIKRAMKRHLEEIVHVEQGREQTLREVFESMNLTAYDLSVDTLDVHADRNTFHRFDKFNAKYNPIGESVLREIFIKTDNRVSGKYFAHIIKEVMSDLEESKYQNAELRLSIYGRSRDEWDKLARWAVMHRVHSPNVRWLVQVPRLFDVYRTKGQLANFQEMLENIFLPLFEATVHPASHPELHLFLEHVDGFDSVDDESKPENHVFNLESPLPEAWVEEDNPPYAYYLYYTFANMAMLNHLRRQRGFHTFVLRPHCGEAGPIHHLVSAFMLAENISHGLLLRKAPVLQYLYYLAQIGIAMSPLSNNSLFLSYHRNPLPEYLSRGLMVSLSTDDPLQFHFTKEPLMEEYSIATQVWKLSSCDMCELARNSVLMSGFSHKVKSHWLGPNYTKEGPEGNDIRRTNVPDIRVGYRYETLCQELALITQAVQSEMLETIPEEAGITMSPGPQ", "assay": "AMPD2 regulation by fructose-1-phosphate", "assay_type": "biochemical", "conditions": "FIG. 15", "description": "Fructokinase uses ATP to phosphorylate fructose to fructose-1-phosphate leading to a reduction of ATP and generation of AMP, leading to the activation of AMPD2."}, "[11]": {"tested_on": "fructose induced fatty liver", "assay": "Fructose induced fatty liver and hypertriglyceridemia in rats", "assay_type": "in vivo, Male Sprague Dawley rats", "description": "Fructose only and control diet rats also received daily i.p injections of vehicle. At the end of two weeks rats were sacrificed. […] FIG. 12A. […] FIG. 12B."}, "[12]": {"tested_on": "AMPD2 mRNA", "assay": "Silencing of AMPD2 with shRNA in HepG2 cells", "assay_type": "cell-based, human", "description": "An shRNA for AMPD2 was employed to silence human hepatic cells (HepG2). (FIGS. 3 and 4) The silencing vector pSM2-AMPD2 (V2HS—172668, Open Biosystems) incorporates a 22-base shRNAmir trigger designed to mimic a natural microRNA primary transcript. The target sequence is specific for human AMPD2 and has been selected based on thermodynamic criteria for optimal small RNA performance. The specific sequence is 5′-[…]-3′(SEQ ID NO: 1).\nThe immortalized human hepatocytes cell line, HepG2, was transfected with the silencing vector pSM2-AMPD2 using Lipofectamine LTX Plus (Invitrogen) as described by the manufacturer (FIG. 4). Briefly, cell cultures were grown to 90-95% confluence in normal growth media and in 24-well plates. Lipid-DNA complexes were prepared as per recommended protocols using growth media without serum. 100 μl of the lipid-DNA solution was added per well of attached cells and incubated for 4 hrs at 37° C. Wells were then diluted with 1.5 ml of normal growth media and incubated for an additional 24 hrs prior to addition of selective media containing 1 μg/mL Puromycin antibiotic. After 7 days, stable transfectants (clones) were selected with glass cloning rings, replated and a second colony selection was performed to provide a clean clone for analysis. Validation of AMPD2 gene knock down was performed by harvesting protein and performing a Western blot for protein expression. Clone #5 was subsequently used for the experiments and was designated as sAMPD2.\nA key enzyme in Beta fatty acid oxidation, enoyl CoA hydratase-1 (ECH-1), was stimulated in control cells as well as fructose treated cells in which AMPD2 had been silenced. The inhibition of AMPD2 by sAMPD2 was accompanied by an upregulation of phosphorylated AMPkinase (Thr172) in both unstimulated and fructose stimulated hepatocytes, whereas total AMPK was not altered.\nThe stimulation of fat oxidation in AMPD2 knocked down hepatocytes was confirmed by measuring β hydroxybutyrate, a fat oxidation product (FIG. 5B).\nThe stimulation of phosphorylated AMP kinase in human hepatocytes (HepG2 cells) by silencing AMPD2 with shRNA as shown in FIG. 5A led to […] of target genes as noted by Western blot (FIG. 6A). For example, the phosphorylated form of Acetyl CoA Carboxylase (pACC) which is involved in triglyceride synthesis was induced by silencing AMPD2 in both unstimulated and fructose stimulated cells. […] Importantly, these changes blocked the triglyceride accumulation in HepG2 cells in response to fructose (FIG. 6B).\nSilencing AMPD2 prevented the upregulation of KHK in response to fructose."}, "[13]": {"conditions": "unstimulated and fructose stimulated hepatocytes"}}, "note": "pKi: −log10 of the molar value.", "data": [{"molecule": "3-[2-(3-carboxy-4-bromo-5,6,7,8-tetrahydronaphthyl)ethyl]-3,6,7,8-tetrahydroimidazo[4,5-d][1,3]diazepin-8-ol [compound 24b]", "values": [{"measurement": "pKi", "setting": "[1]", "result": 8.70}, {"measurement": "activity for adenosine deaminase", "setting": "[2]", "result": "minimal activity"}, {"measurement": "concentration found to inhibit", "setting": "[3]", "result": 0.5, "unit": "µM"}, {"measurement": "concentration found to inhibit the enzyme", "setting": "[4]", "result": 0.5, "unit": "mM"}]}, {"molecule": "NC(=O)c1ncn([C@@H]2O[C@H](CO)[C@@H](O)[C@H]2O)c1N", "note": "[AICAR, aminoimidazole carboxamide ribonucleotide]", "values": [{"measurement": "AMPD2 activity", "setting": "[5]; FIG. 8A", "result": "inhibits AMPD2 activity in a dose dependent manner"}, {"measurement": "rise in intracellular triglycerides in response to fructose", "setting": "[6]", "result": "prevented the rise"}, {"measurement": "fall in enoyl CoA hydratase-1 (ECH-1) levels (defect in fat oxidation)", "setting": "[6]", "result": "reversed"}]}, {"molecule": "OC[C@H]1O[C@@H](n2cnc3c2N=CNC[C@H]3O)[C@H](O)[C@@H]1O", "note": "[Coformycin]", "values": [{"measurement": "AMP deaminase inhibition", "setting": "[7]", "result": "inhibits"}]}, {"molecule": "Oc1ncnc2[nH]ncc12", "note": "[allopurinol]", "values": [{"measurement": "IMP-stimulated triglyceride accumulation", "setting": "[8]", "result": "partially blocked"}, {"measurement": "rescue of the IMP-induced reduction in ECoAH", "setting": "[8]", "result": "cannot fully rescue"}]}, {"molecule": "OC[C@H]1C[C@@H](n2cnc3cncnc32)[C@H](O)[C@@H]1O", "note": "[carbocyclic nebularine]", "values": [{"measurement": "AMP deaminase inhibition", "setting": "[7]", "result": "block"}, {"measurement": "adenosine deaminase inhibition", "setting": "[9]", "result": "block"}]}, {"molecule": "OC[C@H]1O[C@@H](c2n[nH]c3cncnc23)[C@H](O)[C@@H]1O", "note": "[deaminoformycin]", "values": [{"measurement": "AMP deaminase inhibition", "setting": "[7]", "result": "block"}, {"measurement": "adenosine deaminase inhibition", "setting": "[9]", "result": "block"}]}, {"molecule": "O=C(COP(=O)(O)O)[C@@H](O)[C@H](O)[C@H](O)CO", "note": "[fructose-1-phosphate]", "values": [{"measurement": "AMPD2 activity", "setting": "[10]", "result": "increases"}]}, {"molecule": "CN(C)C(=N)N=C(N)N", "note": "[metformin]", "values": [{"measurement": "rise in intracellular triglycerides in response to fructose", "setting": "[6]", "result": "prevented the rise"}, {"measurement": "fall in enoyl CoA hydratase-1 (ECH-1) levels (defect in fat oxidation)", "setting": "[6]", "result": "reversed"}]}, {"molecule": "OC[C@H]1O[C@@H](n2cnc3c2NC=NC[C@H]3O)C[C@@H]1O", "note": "[pentostatin, deoxycoformycin]", "values": [{"measurement": "inhibition of AMPD2 activity", "setting": "[5]; in the presence of 2 mM AMP", "result": 64, "unit": "%"}, {"measurement": "inhibition of AMPD2 activity", "setting": "[5]; in the presence of 10 mM AMP", "result": 72, "unit": "%"}, {"measurement": "rise in fasting serum triglycerides in response to fructose", "setting": "[11]; at two weeks, 0.1 mg/kg daily i.p.", "result": "significantly reduced the rise"}, {"measurement": "rise in serum triglycerides in response to a bolus of fructose", "setting": "[11]; at two weeks, fructose 2 g/kg body weight by gavage", "result": "blocked the rise"}, {"measurement": "fatty liver (lipid deposits, Oil Red O stain)", "setting": "[11]; fructose 20% in water two weeks, 0.1 mg/kg daily i.p.", "result": "largely prevented"}, {"measurement": "AMP deaminase inhibition", "setting": "[7]", "result": "block"}]}, {"molecule": "sAMPD2: silencing vector pSM2-AMPD2 with 22-base shRNAmir specific for human AMPD2, 5′-ACCTGGGAATCTGCTCATTGTT-3′; stable HepG2 clone #5 (the letters are possibly those of the target site)", "values": [{"measurement": "triglyceride accumulation in HepG2 cells in response to fructose", "setting": "[12]; FIG. 6B", "result": "blocked"}, {"measurement": "AMPD2 expression", "setting": "[12]; control HepG2 cells, Western blot", "result": "reduced"}, {"measurement": "enoyl CoA hydratase-1 (ECH-1)", "setting": "[12]; control cells as well as fructose treated cells", "result": "stimulated"}, {"measurement": "increased AMPD2 expression", "setting": "[12]; fructose treated hepatocytes, Western blot", "result": "blocked"}, {"measurement": "phosphorylated form of Acetyl CoA Carboxylase (pACC)", "setting": "[12]; unstimulated and fructose stimulated cells, Western blot", "result": "induced"}, {"measurement": "phosphorylated AMPkinase (Thr172)", "setting": "[12]; [13]", "result": "upregulation"}, {"measurement": "total AMPK", "setting": "[12]; [13]", "result": "not altered"}, {"measurement": "phosphorylated form of glycogen synthase (pGS)", "setting": "[12]; unstimulated conditions and in the presence of fructose", "result": "induced"}]}]}
